Several values for one entry are separate records, joined by “and”; a condition that tells them apart may be missing. Equal entries are not always repeated. Entries after “also recorded” stand apart in the source; their conditions may differ.
Test system: histology-confirmed tumor and normal tissue
Assay: Postoperative tissue slice fluorescence imaging (LI-COR Pearl; MFI, CNR, TBR, ROC) correlated with histopathology
Assay type: in vivo, human
Conditions: for Ex Vivo Tissue Slice CNR / Ex Vivo Tissue Slice TBR: per patient, LI-COR Pearl
From the text: Timing of postoperative tissue slice imaging was adapted to accommodate the differences in the SOC for specimen processing of the different tumor types. Briefly, BC specimens were sliced fresh on the day of surgery and then formalin fixed, other tumor types were sliced after formalin fixation of the whole resection specimen 1 to 3 days after surgery. Generally, the surgical specimen was serially sliced into ±0.5 cm thick tissue slices. White light photographs were made during and directly after slicing for orientation purposes. After slicing, fluorescence imaging on both sides of each tissue slice was performed in a light-tight environment (LI-COR PEARL® Trilogy system). BC slices were therefore imaged approximately 120 min after excision, other tumor types were sliced and imaged the subsequent day(s) after excision and formalin fixation.
Each BLS underwent overnight formalin fixation in 4% paraformaldehyde/phosphate buffered saline. The pathologist then macroscopically sampled parts of BLS (FFPE embedding) for further analysis according to SOC and preparation of 4 μm slices for hematoxylin and eosin (H/E) staining to delineate tumor tissue for histopathological correlation. Additional FFPE blocks could be embedded based on fluorescence imaging of the BLS additional to the SOC examination by conventional macroscopic visual inspection of the pathologist. A standardized workflow was executed in order to cross-correlate final histopathology results with recorded fluorescence images of tissue slices of interest. FFPE blocks were scanned after 7 to 14 days using the Odyssey Flatbed Scanner (LI-COR Bioscience).
After the SOC pathological procedure was performed (approximately 7-10 days for Phase 1a and 7-14 days for Phase 1b), H/E slices were reviewed and discussed with the dedicated board-certified pathologist for the respective tumor type.
A correlation between HE slices and fluorescence images (i.e., bread loaf slice or BLS) were made using Adobe Illustrator and Fiji (ImageJ). After precisely and manually drawing the region of interest (ROI) containing tumor and background based on the histopathological outcome, a CNR was calculated for each LI-COR PEARL image of a separate BLS for each patient. The median CNR was calculated based on all available BLS containing tumor.
Compound 1 fluorescence images were captured from the postoperative specimens (BLS specimens) prepared at each step of the standard pathology for the purposes of correlating Compound 1 fluorescence with histopathological finding of the tumor and the normal tissue. LI COR PEARL, a laboratory camera with capabilities to standardize imaging and fluorescence quantification, was used to compare fluorescence intensity across multiple specimens.
Intraoperative fluorescence intensity cannot be standardized and compared between patients or dose levels due to the unique presentation of each surgical environment. Multiple variables such as camera angle, camera-tissue distance, tumor location, and coverage by other tissues or fat affect the absolute value of the fluorescence signal. To enable direct comparison of MFI across patients and doses, patient tissue slices were imaged with LI-COR Pearl, the standardizable close field camera, using the standard postoperative workflow for fluorescence.

Substance: PEO90-140-b-P(DBA60-150-r-ICG0-3-r-AMA0-3) [Compound 1]
- Ex Vivo Tissue Slice CNR (0.1 mg/kg, HNSCC): 3.5 and 3.2 and 0.9
- Ex Vivo Tissue Slice TBR (0.1 mg/kg, HNSCC): 4.5 (2×) and 1.9
- Ex Vivo Tissue Slice CNR (0.3 mg/kg, BC): 7.0 and 14.1 and 3.2
- Ex Vivo Tissue Slice TBR (0.3 mg/kg, BC): 4.5 and 27.0 and 4.2
- Ex Vivo Tissue Slice CNR (0.5 mg/kg, BC): 6.4
- Ex Vivo Tissue Slice TBR (0.5 mg/kg, BC): 5.0
- Ex Vivo Tissue Slice CNR (0.5 mg/kg, HNSCC): 3.1 and 1.8
- Ex Vivo Tissue Slice TBR (0.5 mg/kg, HNSCC): 3.9 and 2.2
- Ex Vivo Tissue Slice CNR (0.8 mg/kg, BC): 5.7 and 9.2
- Ex Vivo Tissue Slice TBR (0.8 mg/kg, BC): 8.0 and 11.9
- Ex Vivo Tissue Slice CNR (0.8 mg/kg, HNSCC): 4.8
- Ex Vivo Tissue Slice TBR (0.8 mg/kg, HNSCC): 5.9
- Ex Vivo Tissue Slice CNR (1.2 mg/kg, BC): 3.9 and 10.5 and 7.6 and 3.4
- Ex Vivo Tissue Slice TBR (1.2 mg/kg, BC): 4.8 and 14.2 and 12.0 and 4.2
- Ex Vivo Tissue Slice CNR (1.2 mg/kg, CRC): 12.8
- Ex Vivo Tissue Slice TBR (1.2 mg/kg, CRC): 16.9
- Ex Vivo Tissue Slice CNR (1.2 mg/kg, EC): 2.9 and 2.1
- Ex Vivo Tissue Slice TBR (1.2 mg/kg, EC): 3.4 and 3.2
- Ex Vivo Tissue Slice CNR (1.2 mg/kg, HNSCC): 2.4 and 1.9 (2×) and 3.5 (2×) and 2.8 and 4.4
- Ex Vivo Tissue Slice TBR (1.2 mg/kg, HNSCC): 2.9 and 2.2 and 5.4 and 3.7 and 2.5 and 6.5 and 5.2
- Patient tumor specimens with postoperative imaging feasibility (Phase 1a, 0.1 to 1.2 mg/kg): 15
- Tumor MFI compared with non-tumor tissue (all dose cohorts): significantly higher
- Median tumor-to-background ratio (TBR) (all tissue slices (n=97 from 26 subjects), IQR 3.1): 4.5
- Postoperative fluorescence of tumors (all tumor types and doses): fluoresced in tissue slices from all the patients and tumor types; also recorded: all tumors irrespective of tumor type or dose were fluorescent
- Tumor MFI in relation to dose (postoperative tissue slices, 0.1 to 1.2 mg/kg): increased with dose
- ROC curve AUC (tissue slices, 1.2 mg per kg dose cohort, n=59): 0.9875
- ROC curve area under the curve (tissue slices, measurement level, P<0.0001): 0.9726
- TBR (tissue slices, 1.2 mg/kg, IQR 3.0): 4.5

From patent publication US20230025280A1, “PH RESPONSIVE COMPOSITIONS, FORMULATIONS, AND METHODS OF IMAGING A TUMOR” (ONCONANO MEDICINE, INC, priority 2019, published 2023)
